Data from patent US20230131339A1, “EPI-X4 BASED PEPTIDES AND DERIVATIVES THEREOF” (Universitaet Ulm, priority 2020, published 2023).

Key:
[1] = tested on: CXCR4-tropic X4-HIV-1 (NL4-3); assay type: cell-based; conditions: compared to EPI-X4
[2] = tested on: CXCL12-induced AKT signaling; experiment: ERK/AKT signaling assay in SupT1 cells: AKT phosphorylation; assay type: cell-based
Procedure, shortened: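 SupT1 cells in 1% FCS medium preincubated 15 min at 37 °C with compound, then stimulated 2 min with CXCL12 (100 ng/ml final). PFA-fixed, methanol-permeabilized cells stained for phospho-ERK1/2 (Tyr204/Tyr187) or phospho-AKT (Ser473) and read by flow cytometry; two or three independent experiments in triplicate.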

[3] = tested on: CXCL12 induced Ca2+-signalling; experiment: Ca++ signaling in BCR-ABL-transformed murine bone marrow cells; assay type: cell-based; conditions: 1 μM
Method: Fifth, it was shown that the peptide derivatives inhibit calcium-signaling. CXCL12 stimulation of CXCR4 expressing B-cells leads to a strong calcium-release. In the presence of CXCR4 antagonists this response is reduced.
For calcium measurement, 1×10^6 BCR-ABL-transformed murine bone marrow cells were incubated with 5 μg/mL of Indo-1 (Molecular Probes) and 0.5 μg/mL of pluronic F-127 (Molecular Probes) in Iscove's medium supplemented with 1% FCS (Pan Biotech) at 37° C. for 45 min. Cells were then washed by centrifugation and the cell pellets were resuspended in Iscove's medium with 1% FCS and treated with the EPI-X4 derivatives (1 μM or 0.5 μM) for 10 minutes at room temperature. Cells were pre-warmed for 5 minutes at 37° C. Calcium flux was assessed by FACS measurement at BD LSR Fortessa. After 30 seconds of baseline recording, CXCR4-dependent calcium signaling was determined by stimulating with 100 ng/ml of mouse SDF-1a (PeproTech).

[4] = molecular target: T1, CXCR4 12G5 epitope of AML cells (Homo sapiens, UniProt P61073); experiment: Blocking of the CXCR4 12G5 epitope of AML cells; assay type: binding
T1 construct: endogenous in cells
Excerpt: (§1) Experimental data support the efficiency of the claimed peptide derivatives against the diseases mentioned above. At the example of JM #21 (SEQ ID NO.: 23) it could be shown that the peptides counteract growth and migration in vitro and in vivo of Acute Myeloid Leukemia (AML) cells as well as primary patient material and Waldenström's Macroglobulinemia (WM) cells harboring different WHIM-like CXCR4 mutations. This was accompanied by intrinsic changes suppressing oncogenic MAP kinase signaling of AML and WM cells.

[5] = tested on: CXCR4 12G5 epitope of WM cells; experiment: Blocking of the CXCR4 12G5 epitope of WM cells; assay type: binding; conditions: with or without CXCR4 mutations
Excerpt: as §1

T1 sequence (P61073 whole entry): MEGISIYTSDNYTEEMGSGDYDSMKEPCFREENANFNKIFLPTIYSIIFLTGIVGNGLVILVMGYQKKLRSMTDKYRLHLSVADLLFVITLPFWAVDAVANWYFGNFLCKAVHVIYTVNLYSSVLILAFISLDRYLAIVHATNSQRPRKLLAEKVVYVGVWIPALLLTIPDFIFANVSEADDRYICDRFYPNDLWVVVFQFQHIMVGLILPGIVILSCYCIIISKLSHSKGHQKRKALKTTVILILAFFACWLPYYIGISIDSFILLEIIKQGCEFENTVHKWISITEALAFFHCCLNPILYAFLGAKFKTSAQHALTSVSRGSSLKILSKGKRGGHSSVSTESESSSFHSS

CC[C@H](C)[C@H](N)C(=O)N[C@@H](CC(C)C)C(=O)N[C@@H](CCCNC(=N)N)C(=O)N[C@@H](Cc1c[nH]c2ccccc12)C(=O)N[C@@H](CO)C(=O)N[C@@H](CCCNC(=N)N)C(=O)N[C@@H](CCCCN)C(=O)N[C@@H](CC(C)C)C(=O)N1CCC[C@H]1C(=O)N[C@@H](CS)C(=O)N[C@H](C(=O)N[C@@H](CO)C(=O)O)C(C)C [JM #21]
fold more effective inhibition of X4-HIV-1 than EPI-X4 [1]: ~100 fold
reduction of CXCL12-induced AKT signaling ([2]; 1 μM): about 50%
reduction of CXCL12-induced AKT signaling ([2]; 10 μM): about 85%
blocking of CXCL12 induced signaling (in words) ([2]; AKT and ERK): blocked signaling more effectively than WSC02
fold effectiveness in blocking AKT signaling relative to WSC02 ([2]; compared to WSC02): about 10 fold
reduction of CXCL12 induced calcium-signaling [3]: much stronger than the reduction seen for WSC02
blocking of CXCR4 12G5 epitope of AML cells [4]: efficiently blocked the CXCR4 12G5 epitope of AML cells in a dose dependent manner
blocking of CXCR4 12G5 epitope of WM cells [5]: blocked the CXCR4 12G5 epitope of WM cells in presence or absence of different CXCR4 mutations in a dose dependent manner
